According to US20260315563A1, “A NOVEL MENTHOL-EUCALYPTUS OIL ANTITUSSIVE SPRAY AND USE THEREOF” (SINO-SHINE BIOPHARMACEUTICAL CO.,LTD, priority 2023, published 2026):
“And” between values parts separate entries of the source, which are not always exact repeats. Equal entries are not always repeated. “Also recorded” adds a separate entry of the source. Structures can show the parent of a compound that is named as a salt.

Key:
[1] = system: TRPV1; settings: in vivo; cited from earlier work
[2] = system: cough induction using LPS and citric acid; test: Animal Experiment 2: antitussive effect in LPS-citric acid cough model (inflammatory cough), guinea pigs; assay type: in vivo; settings: for Cough Frequency / Cough Frequency Suppression Rate, Actual Value / Cough Latency: LPS + 0.2 M citric acid
Description: 160 guinea pigs, 250 g to 300 g each, half-male and half-female, certificate number 20220908Cdzz0412999409, were purchased from Xinjian Rabbit Farm, Dashiju Town, Xinchang County. The animals were reared at the general laboratory facility with 40% to 60% of humidity, and provided with a cycle of 12 h in the dark and 12 h in light. The animals could freely access to water and food. All operations and experimental procedures complied with the “Regulations on Animal Experiment Management.” • Production license: SCXK (Zhejiang) 2020-0005 • Application license: SCXK (Zhejiang) 2021-0019
Currently, there are barely reports on the models of inflammatory coughs in China and other countries. To closely mimic the occurrence of actual coughs in people suffering from acute respiratory infection, a novel inflammatory cough model was explored ahead of the projected experiments. This novel model was based on the citric acid-induced cough model, but the animals were subject to a LPS pretreatment before beginning with the cough provocation of citric acid.
After 5 days of adaptive feeding, the animal was individually placed in a glass bell jar to allow adaptation for 1 min, and then administrated with the compressed aerosol of 0.4 M citric acid solution (instead of physiological saline for the blank control group) for 10 min. The frequency of cough was recorded during administration of the citric acid aerosol. The guinea pigs with a cough frequency of 10-30 were retained for the formal experiments later. The qualified guinea pigs were randomly divided into the corresponding groups (not fewer than 8 in each group) and were subjected to test the inhalation of the nebulized solvent, menthol, eucalyptus oil, or a combination of menthol and eucalyptus oil for 10 min. After an interval of 15 min post inhalation of the test drug, the animals were administered with the aerosol of 1 mg/mL LPS. 4 hours post the LPS nebulization, the animals were subjected to the second inhalation of the nebulized solvent, menthol, eucalyptus oil, or the combination of menthol and eucalyptus oil for 10 min. Fifteen minutes later, the aerosol of 0.2 M citric acid was administered for cough induction, and the process was recorded by video during the inhalation of citric acid. The duration from the inhalation of the nebulized citric acid to the emergence of first cough was designated as the latency. The control group used solvent for nebulization and cough evoking.
• (1) 0.4 M citric acid: Citric acid was accurately weighed, added into an appropriate volume of pure water to make a final concentration of 0.4 mol/L, and completely dissolved by sonication. • (2) 0.2 M citric acid: Citric acid was accurately weighed, added into an appropriate volume of pure water to make a final concentration of 0.2 mol/L, and completely dissolved by sonication. • (3) Codeine: Codeine was accurately weighed, placed in a mortar and grounded repeatedly, added into an appropriate amount of physiological saline and completely dissolved by sonication. • (4) LPS preparation: LPS was accurately weighed, added into an appropriate amount of physiological saline to make a final concentration of 1 mg/mL, and completely dissolved by vortexing. • (5) Preparations of testing drugs: Initially, 4 g of menthol was dissolved in 10 mL of olive oil (menthol group), or 0.45 mL of eucalyptus oil was sufficiently mixed with 9.55 mL of olive oil (eucalyptus oil group). Afterwards, 5 g of soybean lecithin (previously cut into small pieces) was added to 10 mL of olive oil (control group) or each of the drug groups above, and dissolved by slowly stirring to form a uniform oil phase at 42° C. in a water bath. Further, double distilled water was slowly added to each group in oil phase on a magnetic stirrer and fully emulsified by sufficiently stirring to mix the oil phase with water. […]

[3] = system: sodium citrate-evoked coughs; test: Animal Experiment 1: antitussive effect in sodium citrate (citric acid)-evoked cough, guinea pigs; assay type: in vivo; settings: for Cough Frequency / Cough Latency / Inhibition Rate of Cough: nebulization 10 min, 0.4 M citric acid; for Inhibition Rate of Cough: original model
Description: 100 guinea pigs, 250 g to 300 g each, half-male and half-female, were purchased from Beijing Vital River Experimental Animal Technology Co., Ltd., referred to Certificate Numbers 110011220104932418, 110011220104932542. The animals were reared at the general laboratory facility with 40% to 60% of humidity, and provided with a cycle of light: 12 h in dark and 12 h in light. The animals could freely access to water and food. All operations and experimental procedures complied with the “Regulations on Animal Experiment Management.”
At the initial screening step, each guinea pig was individually placed in a glass bell jar to allow adaptation for 1 min and then administered with a compressed aerosol of 0.4 M citric acid solution (instead of physiological saline for the blank control group) for 10 min. The frequency of cough was recorded during administration of the aerosol. The guinea pigs with a cough frequency of 10-30 were retained for the formal experiments later. The qualified guinea pigs were randomly divided into the corresponding groups (not fewer than 10 in each group) and were subjected to test the inhalation of the nebulized solvent, menthol, eucalyptus oil, or a combination of menthol and eucalyptus oil for 10 min. After an interval of 10 min post-inhalation of the test drug, 0.4 M citric acid solution was nebulized and given for inhalation, and the cough frequency was recorded by video from the beginning to the end of the administration of citric acid aerosol. The latency of cough is defined as the period from the inhalation of nebulized citric acid to the appearance of the first cough. The videos were recorded during the period of cough provocation in the experiment.
• (1) 0.4 M sodium citrate: Sodium citrate was accurately weighed, added into an appropriate volume of pure water, completely dissolved by sonication, and finally diluted to 0.4 M for use later. • (2) Codeine: Codeine was accurately weighed, grounded sufficiently in a mortar, transferred into an appropriate amount of physiological saline, and dissolved by sonication. • (3) Preparations of testing drugs: Initially, an oil phase was prepared by dissolving 2 g of menthol in 10 mL of olive oil (menthol group); or well mixing 3.6 mL of eucalyptus oil with 6.4 mL of olive oil (eucalyptus oil group); or adding 2 g of menthol and 3.6 mL of eucalyptus oil/0.6 g of menthol and 3.6 mL of eucalyptus oil/2 g of menthol and 1.2 mL of eucalyptus oil respectively in a corresponding volume of olive oil to make a final 10 mL solution (menthol+eucalyptus oil groups). Afterwards, 5 g of soybean lecithin (cut into small pieces beforehand) was added to 10 mL of olive oil (control group) or each of the drug groups above and dissolved by slowly stirring to form a uniform oil phase at 42° C. in a water bath. Further, double distilled water was slowly added to each group in oil phase on a magnetic stirrer and fully emulsified by sufficiently stirring to mix the oil phase with water. A final emulsion was prepared in a volume of 100 mL and could be further diluted to make a working preparation with the specific concentration of drug (or drugs).
All experimental data were expressed as mean±SEM, and the data-processing software SSPS16.0 was used to conduct the analysis of variance and inter-group t-test. The conclusions were made by comprehensively analyzing all data.

[4] = system: inflammatory factors, such as leukotriene B4 (LTB4), prostaglandin (PGE2), and a variety of cytokines; settings: cited from earlier work
[5] = system: coughs; settings: in vivo; cited from earlier work
[6] = system: asthma; settings: clinical trials for asthma; cited from earlier work
[7] = system: TRPM8; settings: cooling effect; membrane potential depolarization and Ca2+ influx; cited from earlier work
[8] = system: capsaicin-guinea pig model; settings: cited from earlier work
[9] = 2% menthol, 3.6% eucalyptus oil, combinations, or 30 mg/mL codeine phosphate, P<0.01

Compound: COc1cc(CNC(=O)CCCC/C=C/C(C)C)ccc1O [Capsaicin]
- Cough induction by TRPV1 agonists (in words) [1]: evoke coughs in humans and guinea pigs

Compound: O=C(O)CC(O)(CC(=O)O)C(=O)O [Citric acid]
- Cough induction (in words) ([2]; 0.2 M citric acid after LPS, P<0.01 vs blank control): significantly induce coughs

Compound: COc1ccc2c3c1O[C@H]1[C@@H](O)C=C[C@H]4[C@@H](C2)N(C)CC[C@@]341 [Codeine phosphate]
- Cough Frequency ([3]; 30 mg/mL codeine phosphate): 7.90 ± 1.61 times
- Cough Latency ([3]; 30 mg/mL codeine phosphate): 158.30 ± 17.46 s
- Inhibition Rate of Cough ([3]; 30 mg/mL codeine phosphate): 57.30 ± 8.70 %
- Cough Frequency ([2]; 30 mg/mL codeine): 8.44 ± 0.71
- Cough Frequency Suppression Rate, Actual Value ([2]; 30 mg/mL codeine): 55.29 ± 3.86 %
- Cough Latency ([2]; 30 mg/mL codeine): 134.78 ± 9.72 s

Compound: O=C(O)CC(O)(CC(=O)O)C(=O)O [Sodium citrate]
- Cough induction (in words) ([3]; 0.4 M sodium citrate, P<0.01 vs control): significantly evoke coughing in guinea pigs
- Cough induction by TRPV1 agonists (in words) [1]: evoke coughs in humans and guinea pigs

Compound: CC12CCC(CC1)C(C)(C)O2 [Eucalyptol, 1,8-Cineol]
- Anti-inflammatory effect (in words) [4]: effective anti-inflammatory agent
- Antitussive effect in human clinical trials (in words) [5]: proven to have anti-inflammatory and antitussive effects in clinical trials; also recorded: confirmed in clinical trials
- Replacement of glucocorticoids in asthma (in words) [6]: partially replace the use of glucocorticoids

Compound: CC(C)[C@@H]1CC[C@@H](C)C[C@H]1O [Menthol, L-1-methyl-4-isopropylcyclohexan-3-ol]
- Activation of TRPM8 (in words) [7]: Activation of TRPM8
- Antitussive effect on capsaicin-evoked coughs (in words) [8]: effectively suppress coughs; also recorded: significantly suppressed
- Effect on frequency of coughs / antitussive effect (in words) [3, 9]: reduced the frequency of coughs; also recorded: reduced the cough frequency; also recorded: show antitussive effects
- Effect on latency of coughs (in words) [3, 9]: significantly increased the cough latency
- Cough Frequency ([3]; 2% menthol): 11.58 ± 1.72 times
- Cough Latency ([3]; 2% menthol): 155.50 ± 20.43 s
- Inhibition Rate of Cough ([3]; 2% menthol): 37.39 ± 9.30%
- Inhibition Rate of Cough ([3]; 2% menthol, listed as menthol): 37.39% and 37.39 ± 9.30 %
- Antitussive effect in human clinical trials (in words) [5]: well verified in human clinical trials
- Cough Frequency ([2]; 0.06% menthol): 16.50 ± 1.78
- Cough Frequency Suppression Rate, Actual Value ([2]; 0.06% menthol): 12.65 ± 9.44%
- Cough Latency ([2]; 0.06% menthol): 104.88 ± 10.85 s
- Cough Frequency ([2]; 0.25% menthol): 14.88 ± 1.90
- Cough Frequency Suppression Rate, Actual Value ([2]; 0.25% menthol): 21.25 ± 10.08%
- Cough Latency ([2]; 0.25% menthol): 88.75 ± 15.96 s
- Statistical significance of cough suppression (in words) ([2]; 1.0% and 4% menthol, 0.15% and 0.45% eucalyptus oil, P<0.01-0.05): statistical significance; also recorded: statistically attained the significance in cough suppression
- Cough Frequency ([2]; 1.0% menthol): 13.13 ± 0.55
- Cough Frequency Suppression Rate, Actual Value ([2]; 1.0% menthol): 28.53 ± 3.00%
- Cough Latency ([2]; 1.0% menthol): 116.38 ± 11.30 s
- Cough Frequency Suppression Rate, Actual Value ([2]; 1.0% menthol, listed as menthol): 28.53 ± 3.00 %
- Cough Frequency ([2]; 4.0% menthol): 11.38 ± 0.82
- Cough Frequency Suppression Rate, Actual Value ([2]; 4.0% menthol): 39.78 ± 4.35%
- Cough Latency ([2]; 4.0% menthol): 128.13 ± 13.84 s
- Cough Frequency Suppression Rate, Actual Value ([2]; 4.0% menthol, listed as menthol): 39.78% and 39.78 ± 4.35 %
- Effect on frequency of coughs (in words) ([2]; menthol 0.06-4%, eucalyptus oil 0.05-0.45%, combinations 0.06-1.0% + 0.05-0.15%, codeine 30 mg/mL): reduce the frequency of coughs in a dose-dependent manner
- Efficacy on inflammatory coughs compared with original model (in words) ([2]; novel LPS-citric acid model vs original citric acid model): reduced; also recorded: better activities on non-inflammatory coughs; also recorded: declined
